Here are results for nine molecules from patent US5368707A, “Convenient determination of trace lead in whole blood and other fluids” (priority 1993, dated 1994).

“Also recorded” adds a separate entry of the source.

Test [1] has as its target T1, isocitrate dehydrogenase (Sus scrofa, UniProt P33198).
T1 construct: purchased Sigma, St. Louis, Mo; ICD Type VI
T1 sequence (P33198 9-421): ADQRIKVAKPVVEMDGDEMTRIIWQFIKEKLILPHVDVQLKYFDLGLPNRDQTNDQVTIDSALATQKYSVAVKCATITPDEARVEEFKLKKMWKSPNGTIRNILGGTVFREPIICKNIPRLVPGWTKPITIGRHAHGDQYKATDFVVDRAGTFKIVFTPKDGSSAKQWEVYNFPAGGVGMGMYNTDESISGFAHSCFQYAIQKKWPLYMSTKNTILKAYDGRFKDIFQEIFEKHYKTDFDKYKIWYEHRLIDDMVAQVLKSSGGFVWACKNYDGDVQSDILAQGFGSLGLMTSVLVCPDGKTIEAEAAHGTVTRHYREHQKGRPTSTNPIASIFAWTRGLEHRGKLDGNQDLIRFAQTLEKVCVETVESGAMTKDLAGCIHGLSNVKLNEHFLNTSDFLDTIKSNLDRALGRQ
The experiment in a line: Effect of complexing agents and other assay components on isocitrate dehydrogenase activity and its lead inhibition. The class given is biochemical, pig. The text has this: Any agent used for displacing lead from the EDTA complex must not interfere with the function or activity of the enzyme employed for detection. […] Other auxiliary complexing agents may also be useful, including iminodiacetate, citrate and lithium ion. Li^+1 is known to weaken lead ion binding to bovine serum albumin and is contemplated to be effective in displacing Pb^2+ from the complex.
To solve this problem, the inventors have employed strong chelating reagents to sequester lead ion from interfering blood proteins subsequent to release of the lead from the selected chelating reagent.

In test [2] the test system is alcohol dehydrogenase. Here is the method:
A bioelectrode was prepared from colloidal gold adsorbed alcohol dehydrogenase according the procedure of Example 2 for ICD. Measurements were made in the microcell as described in Example 1 using various concentrations of mercury.

Where [3] appears, read: colloidal gold/ADH bioelectrode.

For the molecule `O=C(O)[C@@H](S)[C@@H](S)C(=O)O` [DMSA, meso 2,3-dimercaptosuccinic acid], the “effect on ICDH activity / lead inhibition of ICDH” value in test [1] is “do not interfere with electrochemical detection of lead by ICDH inhibition; also recorded: the activity, stability and lead inhibition are not adversely affected”. For the molecule `O=C(O)CN(CCN(CC(=O)O)CC(=O)O)CC(=O)O` [EDTA], in test [1], the “effect on ICDH activity / lead inhibition of ICDH” value is reported as “adversely affect lead ion inhibition of isocitric dehydrogenase”. With `[Mg+2]` [Mg^+2], the “effectiveness as cofactor of isocitric dehydrogenase” value in test [1] (compared with Mn2+, millimolar concentrations) is recorded as “equally effective”. Turning to `C[n+]1c2ccccc2nc2ccccc21` [NMP-MS, N-methylphenazine methosulfate], the “effect on ICDH activity / lead inhibition of ICDH” value in test [1] is recorded as “interfered with inhibition of the enzyme by added lead ion”. In the case of `CC(=O)O` [acetate], in test [1], the “effect on ICDH activity / lead inhibition of ICDH” value is “the activity, stability and lead inhibition are not adversely affected”. As to `c1ccc(-c2ccccc2)cc1` [biphenyl], the “effect on ICDH activity / lead inhibition of ICDH” value in test [1] is on record as “do not interfere with electrochemical detection of lead by ICDH inhibition”. Regarding `c1ccc(-c2ccccn2)nc1` [dipyridyl], the “effect on ICDH activity / lead inhibition of ICDH” value in test [1] was “the activity, stability and lead inhibition are not adversely affected”. For the molecule `c1cnc2c(c1)ccc1cccnc12` [o-phenanthroline], the “effect on ICDH activity / lead inhibition of ICDH” value in test [1] is “do not interfere with electrochemical detection of lead by ICDH inhibition; also recorded: the activity, stability and lead inhibition are not adversely affected”. As for mercury ion, the detection range result in test [2] (colloidal gold adsorbed ADH biosensor) was “nanomolar range”. Further, in test [2] (setting [3]), the amperometric response result is on record as “linear response in at nanomolar levels” and the reversibility of inhibition result is on record as “irreversible”. The specificity of inhibition entry in test [2] (in the presence of added lead ion) was “specific for mercury in the presence of added lead ion”.
